Experimental data: US10946016B2, “Solid forms of an epidermal growth factor receptor kinase inhibitor” (Celgene CAR LLC, priority 2012, dated 2021)
Entries after “also recorded” stand apart in the source; their conditions may differ.

How the values were obtained:
Type in all cases: physicochemical
[1] = Aqueous solubility: slurries in deionised water, HPLC; conditions: slurry in deionised water shaken ca. 24 hours; for aqueous solubility: assessment in words
Protocol: Slurries of all each polymorphic form were created in deionised water and shaken for ca. 24 hours. The resulting solid was then analysed by HPLC to determine the concentration of material dissolved.

[2] = Dynamic vapour sorption (DVS) with post DVS XRPD; conditions: for DVS water uptake: between 20 and 70% RH
Protocol: For dynamic vapour sorption (DVS), approximately 10 mg of sample was placed into a wire mesh vapour sorption balance pan and loaded into a DVS-1 dynamic vapour sorption balance by Surface Measurement Systems. The sample was subjected to a ramping profile from 20-90% relative humidity (RH) at 10% increments, maintaining the sample at each step until a stable weight had been achieved (99.5% step completion). After completion of the sorption cycle, the sample was dried using the same procedure, but all the way down to 0% RH and finally taken back to the starting point of 20% RH. The weight change during the sorption/desorption cycles were plotted, allowing for the hygroscopic nature of the sample to be determined.

[3] = Stability at 40° C./75% RH for 1 week and 2 weeks (XRPD and HPLC); conditions: open container
Protocol: Samples of each form were exposed to an environment of 40° C./75% RH for 1 week and 2 week periods to determine stability. Resulting solids were analysed by XRPD and HPLC to establish if any changes had occurred.

[4] = XRPD after heating or drying (solid form conversion)
Protocol: X-ray powder diffraction (XRPD) analysis was carried out on a Siemens D5000, scanning the samples between 3 and 30 or 50° 2-theta. For samples <100 mg, ca. 5-10 mg of sample was gently compressed onto a glass slide which fitted into the sample holder. For samples >100 mg, ca. 100 mg of sample was gently compressed into a plastic sample holder, so that the sample surface was smooth and just above the level of the sample holder. Measurements were made as follows: In order to determine the relationship between Forms A and B, a sample of Form B was heated to 120° C. and then XRPD analysis was carried out. […] To determine whether Form C remains the same after losing the solvent present, a sample of Form C was heated to 120° C. (i.e., just past the temperature at which the solvent is removed) and then XRPD analysis was carried out. […] In order to determine whether Form E remains the same after losing the solvent present, a sample of Form E was heated to 120° C. (i.e., just past the temperature at which the solvent is lost) and then XRPD analysis was carried out. […] In order to determine whether Form F remains the same after losing the solvent present, a sample of Form F was heated to 120° C. (i.e., just past the temperature at which the solvent is lost) and then XRPD analysis was carried out. […] To examine whether Form H changes to Form A after heating to 115° C. (point after the solvent loss), the Form H material was heated to 115° C. and XRPD analysis and DSC analysis were then carried out. […] The DSC analysis (FIG. 49) indicated overlapping endotherms between ca. 115-135° C., followed by an exotherm at peak 143.9° C., likely indicating a polymorphic transition. A final endotherm was present at onset 202.7° C. (peak 206.6° C.) corresponding with the Form A melt.

[5] = 7 day stability studies of Form I at 25° C., 80° C., 40° C./75% RH (open and closed)
Protocol: Approximately 15 mg of Form I was placed separately into vials and then exposed to 25° C., 80° C. and 40° C./75% RH environments (open and closed vials) for 1 week to determine stability. The resulting solids were analysed by XRPD and HPLC to establish if any changes had occurred. Results are presented in Tables 2 and 3 and FIGS. 62 and 63.

[6] = Thermodynamic solubility studies at various pH; conditions: for solubility at 24 h: thermodynamic from solid
Protocol: Slurries of Form I were created in media of various pH (pH 1; pH 3; pH 4.5 and pH 6.6) and shaken for ca. 24 hours. After 24 hours, the slurries were filtered and the solution analysed by HPLC in order to determine the solubility at the various pH levels. For the buffer solutions, KCl/HCl was used for pH 1 and citrate/phosphate combinations for pH 3, 4.5 and 6.6 (10 mM). The pH of the solutions was also measured prior to HPLC analysis. XRPD analysis was carried out on the remaining solids after 24 hours of shaking.

[7] = ambient under vacuum 7 days, then 2 days at 40° C.
[8] = closed container, 40° C./75% RH

Which aqueous solubility [1] does the source give for C=CC(=O)Nc1cccc(Nc2nc(Nc3ccc(N4CCN(C(C)=O)CC4)cc3OC)ncc2C(F)(F)F)c1 [Form G, N-(3-(2-(4-(4-acetylpiperazin-1-yl)-2-methoxyphenylamino)-5-(trifluoromethyl)pyrimidin-4-ylamino)phenyl)acrylamide] here?
Its aqueous solubility is “poor”.

And the DVS analysis observation [2]?
The DVS analysis observation was “contain significant amounts of solvent that are lost as the relative humidity is increased”.

And the “Post DVS XRPD (solid form)” value [2]?
Its value is “converted to Form A”.

And the “HPLC purity after storage” value ([3]; 1 week)?
Its value is “ca. 96.8%”.

And the “XRPD analysis after storage” value ([3]; 1 week)?
The value was “converted predominantly to Form A, with some loss in crystallinity”.

What about the “HPLC purity after storage” value ([3]; 2 week) of the same compound?
Its value is “ca. 96.2%”.

And the “XRPD analysis after storage” value ([3]; 2 week)?
The value was “converted predominantly to Form A, with some loss in crystallinity”.

And the XRPD after drying ([4]; 80° C. for 4 days)?
Its XRPD after drying is “converted to Form A”.

What about the XRPD after drying [4, 7] of the same compound?
Its XRPD after drying is “converted to Form A”.

With C=CC(=O)Nc1cccc(Nc2nc(Nc3ccc(N4CCN(C(C)=O)CC4)cc3OC)ncc2C(F)(F)F)c1 [Form F, N-(3-(2-(4-(4-acetylpiperazin-1-yl)-2-methoxyphenylamino)-5-(trifluoromethyl)pyrimidin-4-ylamino)phenyl)acrylamide] as the compound, how does the “detection by HPLC analysis for the aqueous solubility” value (shortened to “detection by HPLC analysis”) [1] read?
The value was “could not be detected; also recorded: below the limit of quantification”.

And the aqueous solubility [1]?
The aqueous solubility was “poor”.

And the DVS analysis observation [2]?
Its DVS analysis observation is “contain solvent, which is lost as the relative humidity is increased”.

And the “Post DVS XRPD (solid form)” value [2]?
Its value is “converted predominantly to Form A (traces of Form F remaining)”.

And the “HPLC purity after storage” value ([3]; 1 week)?
Its value is “ca. 96.8%”.

And the “XRPD analysis after storage” value ([3]; 1 week)?
The value was “converted to Form A, with some loss in crystallinity”.

And the “HPLC purity after storage” value ([3]; 2 week)?
Its value is “ca. 96.3%”.

And the “XRPD analysis after storage” value ([3]; 2 week)?
The value was “partially crystalline with peaks present corresponding with Form A”.

And the XRPD after drying [4, 7]?
The XRPD after drying was “lost some crystallinity and converted predominantly to Form A”.

What about the XRPD after heating ([4]; heated to 120° C.) of the same compound?
Its XRPD after heating is “converted predominantly to Form A”.

What does the source list for C=CC(=O)Nc1cccc(Nc2nc(Nc3ccc(N4CCN(C(C)=O)CC4)cc3OC)ncc2C(F)(F)F)c1 [Form C, N-(3-(2-(4-(4-acetylpiperazin-1-yl)-2-methoxyphenylamino)-5-(trifluoromethyl)pyrimidin-4-ylamino)phenyl)acrylamide]?
detection by HPLC analysis for the aqueous solubility [1]: could not be detected; aqueous solubility [1]: poor; DVS analysis observation [2]: contain solvent, which is lost as the relative humidity is increased; Post DVS XRPD (solid form) [2]: converted to Form A; HPLC purity after storage ([3]; 1 week): ca. 97.1%; XRPD analysis after storage ([3]; 1 week): converted to Form A with some loss in crystallinity; HPLC purity after storage ([3]; 2 week): ca. 96.8%; XRPD analysis after storage ([3]; 2 week): poorly crystalline with the peaks present corresponding with Form A; XRPD after drying [4, 7]: some loss in crystallinity and converted to Form A; XRPD after heating ([4]; heated to 120° C.): converted to Form A

With C=CC(=O)Nc1cccc(Nc2nc(Nc3ccc(N4CCN(C(C)=O)CC4)cc3OC)ncc2C(F)(F)F)c1 [Form D, N-(3-(2-(4-(4-acetylpiperazin-1-yl)-2-methoxyphenylamino)-5-(trifluoromethyl)pyrimidin-4-ylamino)phenyl)acrylamide] as the compound, how does the “detection by HPLC analysis” value [1] read?
Its value is “could not be detected”.

And the aqueous solubility [1]?
Its aqueous solubility is “extremely poor”.

What about the DVS analysis observation [2] of the same compound?
Its DVS analysis observation is “contain solvent which is lost as the relative humidity is increased”.

And the “Post DVS XRPD (solid form)” value [2]?
The value was “converted completely to Form B”.

What about the “HPLC purity after storage” value ([3]; 1 week) of the same compound?
The value was “ca. 96.5%”.

What about the “XRPD analysis after storage” value ([3]; 1 week) of the same compound?
Its value is “converted completely to Form B with some loss in crystallinity”.

What about the “HPLC purity after storage” value ([3]; 2 week) of the same compound?
The value was “ca. 95.5%”.

And the “XRPD analysis after storage” value ([3]; 2 week)?
The value was “poorly crystalline with the peaks present corresponding with Form B”.

With C=CC(=O)Nc1cccc(Nc2nc(Nc3ccc(N4CCN(C(C)=O)CC4)cc3OC)ncc2C(F)(F)F)c1 [Form B, N-(3-(2-(4-(4-acetylpiperazin-1-yl)-2-methoxyphenylamino)-5-(trifluoromethyl)pyrimidin-4-ylamino)phenyl)acrylamide] as the compound, how does the “detection by HPLC analysis” value [1] read?
The value was “could not be detected”.

And the aqueous solubility [1]?
The aqueous solubility was “poor”.

What about the “Post DVS XRPD (solid form)” value [2] of the same compound?
The value was “remained Form B”.

And the “hygroscopicity (DVS)” value [2]?
The value was “non-hygroscopic”.

And the DVS water uptake [2]?
The DVS water uptake was 0.74%.

What about the “HPLC purity after storage” value ([3]; 1 week) of the same compound?
The value was “ca. 96.8%”.

What about the “XRPD analysis after storage” value ([3]; 1 week) of the same compound?
The value was “predominantly amorphous”.

And the “HPLC purity after storage” value ([3]; 2 week)?
Its value is “ca. 95.9%”.

And the “XRPD analysis after storage” value ([3]; 2 week)?
The value was “predominantly amorphous”.

What about the XRPD after heating ([4]; heated to 120° C.) of the same compound?
Its XRPD after heating is “mixture of Form B and Form A”.

And the XRPD after heating ([4]; heated to 160° C.)?
The XRPD after heating was “converted predominantly to Form A”.

What does the source list for C=CC(=O)Nc1cccc(Nc2nc(Nc3ccc(N4CCN(C(C)=O)CC4)cc3OC)ncc2C(F)(F)F)c1 [Form I, N-(3-(2-(4-(4-acetylpiperazin-1-yl)-2-methoxyphenylamino)-5-(trifluoromethyl)pyrimidin-4-ylamino)phenyl)acrylamide]?
Purity after 1 week ([5]; closed container, 25° C.): 99.4%; XRPD Analysis after 1 week ([5]; closed container, 25° C.): Form I; Purity after 1 week [5, 8]: 99.3%; XRPD Analysis after 1 week [5, 8]: Form I; also recorded: (some loss in crystallinity); Purity after 1 week ([5]; closed container, 80° C.): 99.2%; XRPD Analysis after 1 week ([5]; closed container, 80° C.): Form I; also recorded: (some loss in crystallinity); Purity after 1 week ([5]; open container, 25° C.): 98.7%; XRPD Analysis after 1 week ([5]; open container, 25° C.): Form I; Purity after 1 week ([5]; open container, 40° C./75% RH): 98.9%; XRPD Analysis after 1 week ([5]; open container, 40° C./75% RH): Form I; Purity after 1 week ([5]; open container, 80° C.): 98.5%; XRPD Analysis after 1 week ([5]; open container, 80° C.): Form I; also recorded: (some loss in crystallinity); Post DVS XRPD (solid form) [2]: remained as Form I; hygroscopicity (DVS) [2]: relatively non-hygroscopic; DVS mass uptake ([2]; Cycle 1, sorption 20-90% RH): ca. 0.66%; DVS rapid mass loss ([2]; Cycle 2, desorption, between 10-0% RH): ca. 2.7%; DVS mass decrease ([2]; Cycle 2, desorption, between 90-10% RH): ca. 1.2%; DVS moisture uptake ([2]; Cycle 3, sorption, between 0-20% RH): ca. 2.8%; solubility at 24 h ([6]; aqueous buffer, buffer pH 3 (citrate/phosphate), pH prior to analysis 2.26, ca. 24 hours): 23 µg/mL; solubility at 24 h ([6]; aqueous buffer, buffer pH 4.5 (citrate/phosphate), pH prior to analysis 3.38, ca. 24 hours): 2 µg/mL; Solubility ([6]; buffer pH 6.6 (citrate/phosphate), pH prior to analysis 5.04, ca. 24 hours): Not detected; XRPD of solids remaining after thermodynamic solubility experiment ([6]; pH 1, after 24 hours): mixture of Form I and possibly the HCl salt; XRPD of solids remaining after thermodynamic solubility experiment ([6]; pH 6.6, 4.5 and 3.0, after 24 hours): remained as Form I; solubility at 24 h ([6]; simulated gastric fluid, buffer pH 1 (KCl/HCl), pH prior to analysis 0.95, ca. 24 hours): 3270 µg/mL

What does the source list for C=CC(=O)Nc1cccc(Nc2nc(Nc3ccc(N4CCN(C(C)=O)CC4)cc3OC)ncc2C(F)(F)F)c1 [Form E, N-(3-(2-(4-(4-acetylpiperazin-1-yl)-2-methoxyphenylamino)-5-(trifluoromethyl)pyrimidin-4-ylamino)phenyl)acrylamide]?
detection by HPLC analysis for the aqueous solubility [1]: could not be detected; aqueous solubility [1]: extremely poor; Post DVS XRPD (solid form) [2]: converted to Form A; DVS water uptake [2]: 0.25%; HPLC purity after storage ([3]; 1 week): ca. 97.7%; XRPD analysis after storage ([3]; 1 week): predominantly amorphous with visible peaks present corresponding with Form A; HPLC purity after storage ([3]; 2 week): ca. 97.3%; XRPD analysis after storage ([3]; 2 week): predominantly amorphous with visible peaks present corresponding with Form A; XRPD after drying [4, 7]: lost some crystallinity and converted to Form A; XRPD after heating ([4]; heated to 120° C.): converted to Form A
